Source: patent publication US6762326B2, “C2-substituted idan-1-ones and their derivatives, processes for their preparation and their use as pharmaceuticals” (Aventis Pharma Deutschland GmbH, priority 2001, dated 2004)

Test system: female NMRI mice
Test: Anorectic action: cumulative evaporated milk consumption after 24 h feed removal
Format: in vivo
Conditions: versus control animals
Method: The anorectic action was tested on female NMRI mice. After removal of feed for 24 hours, the preparation to be tested was administered intraperitoneally (ip) or by gavage (po). The animals were housed singly and, with free access to drinking water, they were offered evaporated milk 30 minutes after administration of the preparation. The consumption of evaporated milk was determined and the general behavior of the animals was monitored every half an hour for 7 hours. The measured milk consumption was compared to that of vehicle-treated control animals.

CSC1Cc2cc(Cl)ccc2C1=O (stereo not drawn) [Example 1, 5-Chloro-2-methylsulfanylindan-1-one]
Reduction in cumulative milk consumption as % of the control (10 mg/kg ip): 64%

CS(=O)(=O)C1Cc2cc(Cl)ccc2C1=O (stereo not drawn) [Example 2, 5-Chloro-2-methanesulfonylindan-1-one]
Reduction in cumulative milk consumption as % of the control (20 mg/kg ip): 70%

C[S+]([O-])C1Cc2cc(Cl)ccc2C1=O (stereo not drawn) [Example 9, 5-chloro-2-methanesulfinylindan-1-one]
Reduction in cumulative milk consumption as % of the control (50 mg/kg po): 73%
